# Source: ChEMBL document CHEMBL3046898, “Synthesis and characterization of flurbiprofen hydrazide derivatives as potential anti-HCV, anticancer and antimicrobial agents” (2013)
# Calls of active or inactive are those of the source. No cut-off for these calls is given here.
# Assays:
# [1] = test system: MDA-MB-468; experiment: Cytotoxicity against human MDA-MB-468 assessed as cell growth at 10 uM after 48 hrs by SRB assay; format: functional; settings: MDA-MB-468, 48 h, read-out: Activity
# [2] = test system: Pseudomonas aeruginosa; experiment: Antibacterial activity against Pseudomonas aeruginosa at 6.25 to 200 ug/ml after 24 hrs by microwell dilution method; format: functional, organism-based
# [3] = Cytotoxicity against human NCI-ADR-RES assessed as cell growth at 10 uM after 48 hrs by SRB assay; format: functional; settings: read-out: Activity
# [4] = test system: Photorhabdus luminescens; experiment: Antibacterial activity against Photorhabdus luminescens at 10 mg/ml after 24 hrs by disc diffusion method; format: functional, organism-based
# [5] = test system: SNB-75; experiment: Cytotoxicity against human SNB75 assessed as cell growth at 10 uM after 48 hrs by SRB assay; format: functional; settings: SNB-75, 48 h, read-out: Activity
# [6] = test system: MDA-MB-435; experiment: Cytotoxicity against human MDA-MB-435 assessed as cell growth at 10 uM after 48 hrs by SRB assay; format: functional; settings: MDA-MB-435, 48 h, read-out: Activity
# [7] = test system: Candida albicans; experiment: Antifungal activity against Candida albicans at 10 mg/ml after 48 hrs by disc diffusion method; format: functional, organism-based
# [8] = test system: Proteus vulgaris; experiment: Antibacterial activity against Proteus vulgaris at 10 mg/ml after 24 hrs by disc diffusion method; format: functional, organism-based
# [9] = test system: Klebsiella aerogenes; experiment: Antibacterial activity against Enterobacter aerogenes at 6.25 to 200 ug/ml after 24 hrs by microwell dilution method; format: functional, organism-based
# [10] = test system: IGROV-1; experiment: Cytotoxicity against human IGROV1 assessed as cell growth at 10 uM after 48 hrs by SRB assay; format: functional; settings: IGROV-1, 48 h, read-out: Activity
# [11] = test system: HT-29; experiment: Cytotoxicity against human HT-29 assessed as cell growth at 10 uM after 48 hrs by SRB assay; format: functional; settings: HT-29, 48 h, read-out: Activity
# [12] = test system: Staphylococcus aureus; experiment: Antibacterial activity against Staphylococcus aureus at 6.25 to 200 ug/ml after 24 hrs by microwell dilution assay; format: functional, organism-based
# [13] = test system: Pichia membranifaciens; experiment: Antifungal activity against Pichia membranifaciens at 10 mg/ml after 48 hrs by disc diffusion method; format: functional, organism-based
# [14] = test system: Malme-3M; experiment: Cytotoxicity against human MALME-3M assessed as cell growth at 10 uM after 48 hrs by SRB assay; format: functional; settings: read-out: Activity
# [15] = test system: Kluyveromyces marxianus; experiment: Antifungal activity against Kluyveromyces marxianus at 10 mg/ml after 48 hrs by disc diffusion method; format: functional, organism-based
# [16] = test system: OVCAR-5; experiment: Cytotoxicity against human OVCAR5 assessed as cell growth at 10 uM after 48 hrs by SRB assay; format: functional; settings: OVCAR-5, 48 h, read-out: Activity
# [17] = test system: HCC 2998; experiment: Cytotoxicity against human HCC2998 assessed as cell growth at 10 uM after 48 hrs by SRB assay; format: functional; settings: HCC 2998, 48 h, read-out: Activity
# [18] = test system: Aspergillus; experiment: Antifungal activity against Aspergillus at 10 mg/ml after 72 hrs by disc diffusion method; format: functional, organism-based
# [19] = test system: RXF 393; experiment: Cytotoxicity against human RXF393 assessed as cell growth at 10 uM after 48 hrs by SRB assay; format: functional; settings: RXF 393, 48 h, read-out: Activity
# [20] = test system: COLO 205; experiment: Cytotoxicity against human COLO205 assessed as cell growth at 10 uM after 48 hrs by SRB assay; format: functional; settings: COLO 205, 48 h, read-out: Activity
# [21] = test system: Escherichia coli; experiment: Antibacterial activity against Escherichia coli at 6.25 to 200 ug/ml after 24 hrs by microwell dilution method; format: functional, organism-based
# [22] = test system: U-251; experiment: Cytotoxicity against human U251 assessed as cell growth at 10 uM after 48 hrs by SRB assay; format: functional; settings: U-251, 48 h, read-out: Activity
# [23] = test system: NCI-H460; experiment: Cytotoxicity against human NCI-H460 assessed as cell growth at 10 uM after 48 hrs by SRB assay; format: functional; settings: NCI-H460, 48 h, read-out: Activity
# [24] = test system: Staphylococcus aureus; experiment: Antibacterial activity against Staphylococcus aureus at 10 mg/ml after 24 hrs by disc diffusion method; format: functional
# [25] = test system: Acinetobacter radioresistens; experiment: Antibacterial activity against Acinetobacter radioresistens at 10 mg/ml after 24 hrs by disc diffusion method; format: functional, organism-based
# [26] = test system: Pseudomonas aeruginosa; experiment: Antibacterial activity against Pseudomonas aeruginosa at 10 mg/ml after 24 hrs by disc diffusion method; format: functional, organism-based
# [27] = test system: Schwanniomyces occidentalis; experiment: Antifungal activity against Schwanniomyces occidentalis at 10 mg/ml after 48 hrs by disc diffusion method; format: functional, organism-based
# [28] = test system: UACC-257; experiment: Cytotoxicity against human UACC257 assessed as cell growth at 10 uM after 48 hrs by SRB assay; format: functional; settings: UACC-257, 48 h, read-out: Activity
# [29] = test system: 786-0; experiment: Cytotoxicity against human 786-0 assessed as cell growth at 10 uM after 48 hrs by SRB assay; format: functional; settings: 786-0, 48 h, read-out: Activity
# [30] = test system: NCI-H322M; experiment: Cytotoxicity against human NCI-H322M assessed as cell growth at 10 uM after 48 hrs by SRB assay; format: functional; settings: read-out: Activity
# [31] = test system: SF-268; experiment: Cytotoxicity against human SF268 assessed as cell growth at 10 uM after 48 hrs by SRB assay; format: functional; settings: SF-268, 48 h, read-out: Activity
# [32] = test system: Proteus vulgaris; experiment: Antibacterial activity against Proteus vulgaris at 6.25 to 200 ug/ml after 24 hrs by microwell dilution method; format: functional, organism-based
# [33] = test system: Candida tropicalis; experiment: Antifungal activity against Candida tropicalis at 10 mg/ml after 48 hrs by disc diffusion method; format: functional, organism-based
# [34] = test system: OVCAR-3; experiment: Cytotoxicity against human OVCAR3 assessed as cell growth at 10 uM after 48 hrs by SRB assay; format: functional; settings: OVCAR-3, 48 h, read-out: Activity
# [35] = test system: SF-539; experiment: Cytotoxicity against human SF539 assessed as cell growth at 10 uM after 48 hrs by SRB assay; format: functional; settings: SF-539, 48 h, read-out: Activity
# [36] = test system: Escherichia coli; experiment: Antibacterial activity against Escherichia coli at 10 mg/ml after 24 hrs by disc diffusion method; format: functional, organism-based
# [37] = test system: HOP-62; experiment: Cytotoxicity against human HOP62 assessed as cell growth at 10 uM after 48 hrs by SRB assay; format: functional; settings: HOP-62, 48 h, read-out: Activity
# [38] = test system: T47D; experiment: Cytotoxicity against human T47D assessed as cell growth at 10 uM after 48 hrs by SRB assay; format: functional; settings: read-out: Activity
# [39] = test system: SK-MEL-2; experiment: Cytotoxicity against human SK-MEL-2 assessed as cell growth at 10 uM after 48 hrs by SRB assay; format: functional; settings: SK-MEL-2, 48 h, read-out: Activity
# [40] = test system: Klebsiella aerogenes; experiment: Antibacterial activity against Enterobacter aerogenes at 10 mg/ml after 24 hrs by disc diffusion method; format: functional, organism-based
# [41] = test system: MCF7; experiment: Cytotoxicity against human MCF7 assessed as cell growth at 10 uM after 48 hrs by SRB assay; format: functional; settings: MCF7, 48 h, read-out: Activity
# [42] = test system: MOLT-4; experiment: Cytotoxicity against human MOLT4 assessed as cell growth at 10 uM after 48 hrs by SRB assay; format: functional; settings: MOLT-4, 48 h, read-out: Activity
# [43] = test system: BT-549; experiment: Cytotoxicity against human BT549 assessed as cell growth at 10 uM after 48 hrs by SRB assay; format: functional; settings: BT-549, 48 h, read-out: Activity
compound,measurement,setting,value
CC(C(=O)NN1C(=O)CSC1c1ccc(C(F)(F)F)cc1)c1ccc(-c2ccccc2)c(F)c1 (stereo not drawn),growth at 10 µM,[1],59.4%
same,Activity,[2],inactive
same,growth at 10 µM,[3],86.5%
same,Activity,[4],inactive
same,growth at 10 µM,[5],43%
same,growth at 10 µM,[6],66.7%
same,Activity,[7],inactive
same,Activity,[8],inactive
same,Activity,[9],inactive
same,growth at 10 µM,[10],75.5%
same,growth at 10 µM,[11],55.1%
same,Activity,[12],inactive
same,Activity,[13],inactive
same,growth at 10 µM,[14],63%
same,Activity,[15],inactive
same,growth at 10 µM,[16],105%
same,growth at 10 µM,[17],155%
same,Activity,[18],inactive
same,growth at 10 µM,[19],72.5%
same,growth at 10 µM,[20],108%
same,Activity,[21],inactive
same,growth at 10 µM,[22],65.2%
same,growth at 10 µM,[23],40.5%
same,Activity,[24],inactive
same,Activity,[25],inactive
same,Activity,[26],inactive
same,Activity,[27],inactive
same,growth at 10 µM,[28],94.4%
same,growth at 10 µM,[29],47.2%
same,growth at 10 µM,[30],76.9%
same,growth at 10 µM,[31],62.1%
same,Activity,[32],inactive
same,Activity,[33],inactive
same,growth at 10 µM,[34],64.3%
same,growth at 10 µM,[35],63%
same,Activity,[36],inactive
same,growth at 10 µM,[37],82.1%
same,growth at 10 µM,[38],33.4%
same,growth at 10 µM,[39],88.4%
same,Activity,[40],inactive
same,growth at 10 µM,[41],43%
same,growth at 10 µM,[42],43.5%
same,growth at 10 µM,[43],68%
